Values quoted from earlier work, collected in patent US20250283018A1, “TOILET RIM BLOCKS WITH SCENT CHANGE” (SYMRISE AG, priority 2021, published 2025).
Like-named read-outs stand apart in the source and are kept apart here.

Tests used:
[1] = not given; remark: listed apart in the source
[2] = Table 3, components of POWER PLATIN

Compound | Bp. [° C.] [2] | Bp. [° C.] (Table 2, components of PEACH) | Bp. [° C.] (Table 1, components of MARINA) | further results
CC(C)=CCCC(C)CCO (stereo not drawn) [CITRONELLOL 950] | 223 °C | – | – | –
CC(C)=CCCC(C)CCOC(=O)C(C)C (stereo not drawn) [CITRONELLYLISOBUTYRAT] | – | 267 °C | – | Bp. [° C.] (list of selected fragrances): 267 °C; logP ([1]; Table 2, components of PEACH): 5.47; logP ([1]; list of selected fragrances): 5.04
C=CCOC(=O)COC1CCCCC1 [CYCLOGALBANAT] | 256 °C | – | 256 °C | Bp. [° C.] (list of selected fragrances): 256 °C
C/C=C/C(=O)C1=C(C)C=CCC1(C)C [DAMASCENON] | 263 °C | 263 °C | – | logP ([1]; Table 2, components of PEACH): 4.21; logP [1, 2]: 4.21
CCCCCC1CCCC(=O)O1 (stereo not drawn) [DECALACTON DELTA] | – | 267 °C | – | logP ([1]; Table 2, components of PEACH): 2.57
C/C=C/C(=O)C1C(C)C=CCC1(C)C (stereo not drawn) [DELTA DEMASCONE] | 251 °C | 251 °C | – | Bp. [° C.] (list of selected fragrances): 251 °C; logP ([1]; Table 2, components of PEACH): 4.16; logP [1, 2]: 4.16
C=CC(C)CCCC(C)(C)O (stereo not drawn) [DIHYDROMYRCENOL] | 194 °C | – | 194 °C | logP ([1]; Table 1, components of MARINA): 3.47; logP [1, 2]: 3.47
c1ccc(Oc2ccccc2)cc1 [DIPHENYLOXID] | 258 °C | – | 258 °C | logP ([1]; Table 1, components of MARINA): 4.05; logP [1, 2]: 4.05
CC(O)COC(C)CO (stereo not drawn) [DIPROPYLENGLYCOL] | 231 °C | 231 °C | 231 °C | –
CCCCCCCCC1CCC(=O)O1 (stereo not drawn) [DODECALACTON GAMMA] | – | 291 °C | – | logP ([1]; Table 2, components of PEACH): 3.55
CCC(=CCC1CC=C(C)C1(C)C)CO (stereo not drawn) [ETHYL TRIMETHYLCYCLOPENTENE BUTENOL] | – | – | – | Bp. [° C.] (list of selected fragrances): 276 °C; logP ([1]; list of selected fragrances): 4.63
CCCCCC(=O)OCC [ETHYLCAPRONAT] | – | 166 °C | – | –
O=C1CCCCCCCCCCCC(=O)OCCO1 [ETHYLENBRASSYLAT] | – | – | 382 °C | logP ([1]; Table 1, components of MARINA): 4.71
CCc1occc(=O)c1O [ETHYLMALTOL] | 290 °C | – | – | logP [1, 2]: 0.3
CCOC(=O)C(C)CC (stereo not drawn) [ETHYLMETHYLBUTYRAT-2] | – | 135 °C | 135 °C | –
CC12CCC(CC1)C(C)(C)O2 [EUCALYPTOL NAT.] | – | – | 176 °C | –
C=CCc1ccc(O)c(OC)c1 [EUGENOL] | 253.2 °C | – | – | Bp. [° C.] (list of selected fragrances): 253.2 °C
CC12CCC(C1)C(C)(C)C2O (stereo not drawn) [FENCHOL] | – | – | 212 °C | –
CCc1ccc(CC(C)(C)C=O)cc1 [FLORALOZONE] | 276.6 °C | – | – | logP [1, 2]: 3.94
CC1CC(C)(c2ccccc2)OC(C)O1 (stereo not drawn) [FLOROPAL] | – | – | 273 °C | logP ([1]; Table 1, components of MARINA): 3.11
Cc1ccc2c(c1)OC(=O)C2C (stereo not drawn) [FURAMINTON/TONKALACTONE ™] | – | 284 °C | – | logP ([1]; Table 2, components of PEACH): 1.44

Compound | Bp. [° C.] [2] | Bp. [° C.] (Table 2, components of PEACH) | Bp. [° C.] (Table 1, components of MARINA) | further results
CCCCCCC1CCC(=O)O1 (stereo not drawn) [GAMA DECALACTONE] | – | 266 °C | – | Bp. [° C.] (list of selected fragrances): 266 °C; logP ([1]; Table 2, components of PEACH): 2.57; logP ([1]; list of selected fragrances): 2.36
CCCCCC1C(=O)CCC1CC(=O)OC (stereo not drawn) [HEDION] | 296 °C | 296 °C | – | –
O=Cc1ccc2c(c1)OCO2 [HELIOTROPIN/PIPERONAL] | – | – | – | Bp. [° C.] (list of selected fragrances): 263 °C; logP ([1]; list of selected fragrances): 1.35
CCCCCC(C)=O [HEPTANON-2] | – | 150 °C | – | logP ([1]; Table 2, components of PEACH): 1.73
CC/C=C\CCO [HEXENOL CIS-3] | – | 157 °C | 157 °C | –
CCC/C=C/CO [HEXENOL TRANS-2] | – | 159 °C | – | –
CC/C=C/CCOC(=O)c1ccccc1O [HEXENYLSALICYLAT CIS-3] | – | – | – | Bp. [° C.] (list of selected fragrances): 301 °C; logP ([1]; list of selected fragrances): 4.5
CCCCCCOC(C)=O [HEXYLACETAT] | – | 169 °C | 169 °C | –
CCCCCCOC(=O)c1ccccc1O [HEXYLSALICYLAT, hexyl salicylate] | – | – | 327 °C | Bp. [° C.] (list of selected fragrances): 327 °C; logP ([1]; Table 1, components of MARINA): 5.06; logP ([1]; list of selected fragrances): 4.98
CC12CCC(CC1=O)C2(C)C (stereo not drawn) [KAMPFER DL] | – | – | 204 °C | –
CC/C=C\CCOC(=O)OC [LEAFOVERT ®] | – | 189 °C | – | –
CC(=O)OC1CC(C)CCC1C(C)C (stereo not drawn) [MENTHYL ACETATE] | – | – | – | Bp. [° C.] (list of selected fragrances): 255 °C
CCCCCC1C(=O)CCC1CC(=O)OC (stereo not drawn) [METHYLDIHYDROJASMONATE] | – | – | – | Bp. [° C.] (list of selected fragrances): 296 °C
CC(=O)c1oc2ccccc2c1C [NEROLIONE] | – | 272 °C | – | –
CCCCC1CCC(=O)O1 (stereo not drawn) [OCTALACTON GAMMA] | – | 234 °C | – | –
C=CCCC(=O)C(=C)C1CCCCC1 [PHARAONE 10% DPG] | 0 °C | – | – | –
CC(=O)OC(C)c1ccccc1 (stereo not drawn) [STYROLYLACETAT] | – | 214 °C | 214 °C | –
CCC(C)(O)CCCC(C)C (stereo not drawn) [TETRAHYDROLINALOOL] | 197 °C | – | 197 °C | –
CC1=CC(C)C(C=O)CC1 (stereo not drawn) [VERTOCITRAL] | – | – | 187 °C | –
BORNEOL L/ISOBORNEOL 65/35 | 212 °C | – | – | –
TERPINEOL REIN | – | 219.16 °C | 219.16 °C | –
